Measurements: ChEMBL document CHEMBL1131437, “Resistance-modifying agents. 5. Synthesis and biological properties of quinazolinone inhibitors of the DNA repair enzyme poly(ADP-ribose) polymerase (PARP)” (J Med Chem, 1998)

Target: Poly [ADP-ribose] polymerase 1 (Mus musculus, UniProt P11103)
Experiment: biochemical
Description: Inhibition of the DNA repair Poly (ADP-ribose) polymerase 1, in permeabilised L1210 murine leukemia cells

Sequence of Poly [ADP-ribose] polymerase 1 (P11103 whole entry): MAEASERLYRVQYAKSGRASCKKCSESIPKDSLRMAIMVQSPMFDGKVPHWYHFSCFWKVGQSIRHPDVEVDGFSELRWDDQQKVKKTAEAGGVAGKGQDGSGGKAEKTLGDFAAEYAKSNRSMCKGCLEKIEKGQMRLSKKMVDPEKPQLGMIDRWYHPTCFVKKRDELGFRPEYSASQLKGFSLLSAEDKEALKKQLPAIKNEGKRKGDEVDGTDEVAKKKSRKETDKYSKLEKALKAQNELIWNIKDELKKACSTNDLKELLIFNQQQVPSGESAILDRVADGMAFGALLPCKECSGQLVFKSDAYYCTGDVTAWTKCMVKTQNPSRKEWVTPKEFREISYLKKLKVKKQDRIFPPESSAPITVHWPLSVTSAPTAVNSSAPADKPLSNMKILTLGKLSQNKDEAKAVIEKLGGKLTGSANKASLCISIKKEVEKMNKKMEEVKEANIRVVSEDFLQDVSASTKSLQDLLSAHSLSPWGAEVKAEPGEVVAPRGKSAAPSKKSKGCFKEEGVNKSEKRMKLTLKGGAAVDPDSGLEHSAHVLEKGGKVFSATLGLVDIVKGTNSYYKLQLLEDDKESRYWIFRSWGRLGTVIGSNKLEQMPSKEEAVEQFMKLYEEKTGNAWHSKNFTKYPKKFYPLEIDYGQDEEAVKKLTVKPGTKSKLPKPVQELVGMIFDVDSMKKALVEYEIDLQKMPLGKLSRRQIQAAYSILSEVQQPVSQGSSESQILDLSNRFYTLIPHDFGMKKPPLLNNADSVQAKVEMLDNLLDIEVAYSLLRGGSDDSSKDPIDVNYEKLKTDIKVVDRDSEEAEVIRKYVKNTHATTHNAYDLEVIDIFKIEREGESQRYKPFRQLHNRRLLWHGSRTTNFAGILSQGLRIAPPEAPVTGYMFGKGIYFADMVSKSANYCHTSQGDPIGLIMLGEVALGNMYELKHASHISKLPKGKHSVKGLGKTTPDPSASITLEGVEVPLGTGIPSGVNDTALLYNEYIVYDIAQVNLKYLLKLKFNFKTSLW

IC50 [nM]	Structure (SMILES)
270	Cc1cccc2c(O)nc(-c3ccc(C#N)cc3)nc12
39000	COc1cccc2c(O)nc(-c3ccc(C(F)(F)F)cc3)nc12
870	Cc1cccc2c(=O)[nH]c(-c3ccccc3)nc12
850	COc1cccc2c(O)nc(-c3ccc([N+](=O)[O-])cc3)nc12
220	Cc1cccc2c(=O)[nH]c(-c3ccc(O)cc3)nc12
320	Nc1ccc(-c2nc(O)c3cccc(O)c3n2)cc1
190	COc1ccc(-c2nc3c(C)cccc3c(=O)[nH]2)cc1
1930	COc1cccc2c(=O)[nH]c(-c3ccc(N=[N+]=[N-])cc3)nc12
> 100000	COc1cccc2c(=O)n(C)c(C)nc12
390	Cc1nc(O)c2cccc(C)c2n1
> 300	COc1cccc2c(O)nc(-c3ccc(N)cc3)nc12
> 100000	Cc1nc2c(O)cccc2c(=O)n1C
1340	COc1cccc2c(O)nc(-c3ccc(C#N)cc3)nc12
> 10000	Cc1cccc2c(O)nc(-c3ccc(C(F)(F)F)cc3)nc12
440	Cc1cccc2c(O)nc(-c3ccc(N)cc3)nc12
19100	NC(=O)c1cccc(N)c1 [3-AMINOBENZAMIDE]
